Square brackets hold non-standard residues; d marks the D form. Peptide text beside a SMILES is read from it. Gly(N(CH2)2(3-indolyl)) = O=C(O)CNCCc1c[nH]c2ccccc12; Nspe = C[C@H](NCC(=O)O)c1ccccc1; Nlys = NCCCCNCC(=O)O
Columns and labels:
E. coli ATCC 25922 [1] = assay type: cell-based; conditions: ODT, 30 min treatment; buforin-II 25 µM, melittin 25 µM, 29 4 × MIC
Protocol: Three‐dimensional (3D) optical diffraction tomography (ODT) and fluorescence images of live bacterial cells were obtained using an HT‐2H Mach−Zehnder interferometric microscope, combining both ODT and fluorescence imaging into a single unit (Tomocube, Daejon, South Korea). 3D Fluorescence imaging was carried out, using three light sources (385, 470, and 565 nm) via serial fluorescence image acquisition in multiple planes followed by 3D deconvolution. 3D correlative imaging, using a combination of ODT and fluorescence imaging was performed using commercial software (TomoStudioTM, Tomocube) as described previously^[ [23c] ^] Bacterial cells were grown overnight and diluted (≈10^7 CFU mL^−1) in cation‐adjusted MHB2 media. The cells were loaded onto 50 mm imaging dishes with a #1.5H glass coverslip bottom (TomoDish, Tomocube) that were precoated with 0.01% (w/v) poly‐L‐lysine (Sigma‐Aldrich) in water. After 30 min incubation at room temperature, the coverslips were washed twice with PBS (pH 7.4) to remove unattached cells, and the media was replaced with PBS for the duration of the imaging. To monitor the change in bacterial morphology, bacterial cells were treated with a peptoid (or with control AMPs) in PBS containing FM4‐64 (10 µg mL^−1) or propidium iodide (10 µg mL^−1). To analyze 3D refractive index (RI) tomograms, individual bacteria were captured using ODT equipped with a digital micromirror device (Tomocube). In more detail, the light scattered by the bacterial cells was collected by an objective lens (NA = 1.2, water dipping, UPLSAPO 60XW, Olympus) and recorded by a digital image sensor (CMOS camera, FL3‐U313Y3M‐C, FLIR Systems). Using a field retrieval algorithm, the amplitude and phase images were retrieved from the obtained multiple holograms, and then the 3D RI distribution was determined.
The analysis tool in the TomoStudio software (Tomocube) was used to measure specific values, including the refractive index (RI) and the cell volume of bacteria. These values were determined from RI increments (RII) of 0.190 fL pg^−1, which is known as a representative value and was assumed to be the same for most proteins.^[ [46] ^]

E. coli ATCC 25922 [2] = experiment: Killing kinetics; assay type: cell-based; conditions: 4 × MIC, E. coli ATCC 25922, MHB2, 37 °C, CFU counting, triplicates
Protocol: structure of peptoids. SAXS data on peptoids in aqueous environment at different peptoid concentrations (indicated in legends), plotted together with best fit. a) 11 b) 29.
14. In vitro biological assays
The kinetics of antimicrobial activity against E. coli (ATCC 25922) were assessed at a […]
Briefly, an overnight culture of bacteria was diluted at mid log-phase bacteria (2–5 × 10^5 cfu/mL) and incubated with peptoid with desired concentration in MHB2. The bacterial suspension was added to a 96-well polypropylene u- bottomed plate containing the peptoid. The plate was incubated without shaking at 37 °C for 4 h. Samples (20 μl) were taken at time 0.5, 1, 2 and 4 h and diluted in ice PBS buffer from which 100 μl was plated on LB agar plates. The plates were incubated for 18–24 hours at 37 °C and colony forming units (CFU) were counted. The experiment was conducted triplicates, and a curve was plotted between CFU and time (h).
The ability of peptoids to increase the permeability of the outer membrane of Gram-negative bacteria was determined by measuring the incorporation of the NPN fluorescent dye into the outer membrane of E. coli ATCC 25922. Bacterial cells were suspended to a final concentration of OD600 = 0.05 in 5 mM HEPES buffer, pH 7.2, containing 5 mM KCN. Then […]
(1 picture or pasted object on this page, not shown here)

[3] = Protein and DNA aggregation assay (thioflavin T); assay type: biochemical; conditions: 29 25 µM, protein 500 µg mL^−1, gDNA 50 ng mL^−1, Th T 25 µM, 37 °C 1 h, ex 450 / em 485 nm
Protocol: bacteria were pelleted at 4,000 rpm for 10 minutes at 8 °C. The supernatant was removed and the pellet was suspended in 2 mL of PBS buffer. This suspension was transferred to a 15 mL conical tube and cooled on ice. The culture was sonicated for 5 sec and cooled again for 55 sec. This cycle was repeated 15 times. The lysate was centrifuged at 4,000 rpm for 20 minutes at 8 °C. The supernatant was transferred into a fresh 2 mL Eppendorf tube and stored at -80 °C. Protein quantification was performed using TaKaRa Bradford Protein Assay Kit according to the manufacturer’s instructions.
DNA extraction and quantification
DNA extraction was performed using TaKaRa MiniBEST Bacteria Genomic DNA Extraction Kit Ver. 3.0 according to the manufacturer’s instructions.
Protein and DNA aggregation assay
The flocculation of the proteins and DNA caused by peptoids was confirmed by the change in the fluorescent intensity of thioflavin T (Th T) that detects aggregated proteins and double stranded DNA. The appropriate combination of 500 μg/mL of protein solution, 50 ng/mL of genomic DNA, 25 μM of Th T, and 25 μM of peptoid 29 were added into a black 96-well plate in triplicate and incubated at 37 °C for an hour. After incubation, the fluorescence was measured using a microplate reader (excitation wavelength = 450 nm, emission wavelength = […]
[1] […]

What does the source list for C[C@@H](c1ccccc1)N(CC(=O)N(CCCCN)CC(=O)N(CCc1c[nH]c2ccccc12)CC(=O)N(CCc1c[nH]c2ccccc12)CC(N)=O)C(=O)CN(CCCCN)C(=O)CN(CCCCN)C(=O)CN(C(=O)CN(C(=O)CN(CCCCN)C(=O)CN(C(=O)CN(C(=O)CNCCCCN)[C@@H](C)c1ccccc1)[C@@H](C)c1ccccc1)[C@@H](C)c1ccccc1)[C@@H](C)c1ccccc1 [peptoid 29] (H-[Nlys][Nspe][Nspe][Nlys][Nspe][Nspe][Nlys][Nlys][Nspe][Nlys][Gly(N(CH2)2(3-indolyl))][Gly(N(CH2)2(3-indolyl))]-NH2)?
change of cell volume (E. coli ATCC 25922 [1]): notable reduction in cell volume; change of mean RI value versus control cells (E. coli ATCC 25922 [1]): significantly increased mean RI values; time to complete eradication of bacteria (E. coli ATCC 25922 [2]): 4 h; Th T fluorescence of protein and protein/gDNA samples [3]: significant increases in fluorescent emission

Reference: publication PMC10460844, “Real‐Time Monitoring of Multitarget Antimicrobial Mechanisms of Peptoids Using Label‐Free Imaging with Optical Diffraction Tomography” (Advanced Science, 2023)
